Measured values reported in patent EP4104829A1 (priority 2021, dated 2022).
pIC50: −log10 of the molar value. Where two headings read alike, the source gives them in different places.

Tests used:
HCoV-229E-GFP [1] = system: HCoV-229E-GFP
SARS-CoV-2 = assay: microbe, parasite or virus in culture; type: cell-based; conditions: for pIC50: Severe acute respiratory syndrome coronavirus 2, Vero C1008
SARS-CoV-2 (MAD-6) [2] = assay: microbe, parasite or virus in culture; type: cell-based; conditions: Severe acute respiratory syndrome coronavirus 2, Caco-2
HCoV-229E-GFP [3] = type: cell-based
[4] = Cell viability by MTT assay (cytotoxicity), Huh-7; conditions: human, Huh-7 cells
HCoV-229E-GFP [5] = type: cell-based; remark: listed apart in the source
[6] = Cell viability by MTT assay (cytotoxicity), Caco-2; conditions: human, Caco-2 cells
SARS-CoV-2 (MAD-6) [7] = assay: microbe, parasite or virus in culture; type: cell-based; conditions: Severe acute respiratory syndrome coronavirus 2, Vero C1008
[8] = system: foot-and-mouth disease virus (FMDV); conditions: cited from earlier work
FMDV = conditions: mouse, in vivo, 100 mg/kg; cited from earlier work
HCoV-229E-GFP [9] = assay: organism not typed; type: cell-based
[10] = Cell viability by MTT assay (cytotoxicity), Vero-E6; conditions: African green monkey, Vero-E6 cells

SMILES: CCCCCCCCCCCCOC(=O)c1cc(O)c(O)c(O)c1 [LG, Lauryl Gallate]
- direct virucidal effect on the virus particle (HCoV-229E-GFP [1]): No direct toxicity
- SI (SARS-CoV-2): 70,9
- pIC50 (SARS-CoV-2): 5.92
- pIC50 (SARS-CoV-2 (MAD-6) [2]): 5.53
- pIC50 (HCoV-229E-GFP [3]): 5.69
- CC50 at 24 h [4]: 83.1 µM
- direct virucidal effect on the virus particle (SARS-CoV-2 MAD-6): No direct toxicity
- decrease in the HCoV-229E-GFP yield (HCoV-229E-GFP [5]): more than 2 log.u.
- CC50 at 24 h [6]: 97.1 µM
- pIC50 (SARS-CoV-2 (MAD-6) [7]): 5.89
- reduction of the virus productivity [8]: up to 2 log.u.
- clinical signs (FMDV): reduction
- mortality (FMDV): reduction
- viral RNA copies in different tissues (FMDV): reduction
- reduction of the HCoV-229E-GFP infection (HCoV-229E-GFP [9]): up to 2 log.u.
- CC50 at 24 h [10]: 90.1 µM

SMILES: CCCCCCCCOC(=O)c1cc(O)c(O)c(O)c1 [OG, octyl gallate]
- inhibition of FMDV production [8]: totally ineffective
- reduction of the HCoV-229E-GFP infection (HCoV-229E-GFP [9]): up to 2 log.u.
- pIC50 (HCoV-229E-GFP [9]; Huh-7): 5.21

SMILES: CCCOC(=O)c1cc(O)c(O)c(O)c1 [PG, propyl gallate]
- inhibition of FMDV production [8]: totally ineffective
- virus inhibition (HCoV-229E-GFP [9]): unable to produce virus inhibition

SMILES: O=C(O[C@@H]1Cc2c(O)cc(O)cc2O[C@@H]1c1ccc(O)c(O)c1)c1cc(O)c(O)c(O)c1 [epicatechin gallate]
- SI (SARS-CoV-2): 5,8
- pIC50 (SARS-CoV-2): 4.30

SMILES: O=C(O)c1cc(O)c(O)c(O)c1 [gallic acid]
- SI (SARS-CoV-2): 6,2
- pIC50 (SARS-CoV-2): 4.39
- inhibition of FMDV production [8]: totally ineffective
- virus inhibition (HCoV-229E-GFP [9]): unable to produce virus inhibition
